Measured values taken from US20200016136A1 (VIIV HEALTHCARE UK (NO. 5) LIMITED, priority 2017, published 2020).

System: NL-RLuc virus (recombinant NL4-3 HIV with Renilla Luciferase gene)
Test: Inhibition of HIV replication (NL-RLuc virus in MT-2 cells, luciferase readout)
Assay type: cell-based, Human immunodeficiency virus (HIV)
Conditions: MT2, 120 h
Text: Inhibition of HIV Replication:
A recombinant NL-RLuc proviral clone was constructed in which a section of the nef gene form NL4-3 was replaced with the Renilla Luciferase gene. This virus is fully infectious and can undergo multiple cycles of replication in cell culture. In addition, the luciferous reporter provides a simple and easy method for quantitating the extent of virus growth and consequently, the antiviral activity of test compounds. The plasmid pNLRLuc contains the proviral NL-Rluc DNA cloned into pUC18 at the PvuII site. The NL-RLuc virus was prepared by transfection of 293T cells with the plasmid pNLRLuc. Transfections were performed using the LipofectAMINE PLUS kit form Invitrogen (Carlsbad, Calif.) according to the manufacturer and the virus generated was titered in MT-2 cells. For susceptibility analyses, the titrated virus was used to infect MT-2 cells in the presence of compound, and after 5 days of incubation, cells were processed and quantitated for virus growth by the amount of expressed luciferase. Assay media was RPMI 1640 supplemented with 10% heat inactivated fetal bovine serum (FBS), 100 units/ml penicillin G/100 units/ml streptomycin, 10 mM HEPES buffer pH 7.55 and 2 mM L-glutamine. The results form at least 2 experiments were used to calculate the EC50 values. Luciferase was quantitated using the Dual Luciferase kit form Promega (Madison, Wis.). Susceptibility of viruses to compounds was determined by incubation in the presence of serial dilutions of the compound. The 50% effective concentration (EC50) was calculated by using the exponential form of the median effect equation where (Fa)=1/[1+(ED50/drug conc.)^m](Johnson V A, Byington R T. Infectivity Assay. In Techniques in HIV Research. ed. Aldovini A, Walker B D. 71-76. New York: Stockton Press. 1990).

Row | Structure (SMILES) | EC50 [nM]
1 | CN(Cc1nc(Cl)c([C@H](OC(C)(C)C)C(=O)O)c(N2CCC(C)(C)CC2)c1-c1ccc2c(c1)CCN(c1ncnc3c1oc1ccccc13)C2)CC1CCOCC1 [Example 112, (S)-2-(5-(2-(Benzofuro[3,2-d]pyrimidin-4-yl)-1,2,3,4-tetrahydroisoquinolin-6-yl)-2-chloro-4-(4,4-dimethylpiperidin-1-yl)-6-((methyl((tetrahydro-2H-pyran-4-yl)methyl)amino)methyl)pyridin-3-yl)-2-(tert-butoxy)acetic Acid] | 0.3
2 | Cc1nc(C)c([C@H](OC(C)(C)C)C(=O)O)c(N2CCC(C)(C)CC2)c1-c1ccc2c(c1)CCN(c1nccc(N3C4COCC3COC4)n1)C2 [Example 33, (2S)-2-(tert-Butoxy)-2-[4-(4,4-dimethylpiperidin-1-yl)-5-[2-(4-{3,7-dioxa-9-azabicyclo[3.3.1]nonan-9-yl}pyrimidin-2-yl)-1,2,3,4-tetrahydroisoquinolin-6-yl]-2,6-dimethylpyridin-3-yl]acetic Acid] | 5
3 | COc1c(N2CCOCC2)ncnc1N1CCc2cc(-c3c(C)nc(C)c([C@H](OC(C)(C)C)C(=O)O)c3N3CCC(C)(C)CC3)ccc2C1 [Example 67, (S)-2-(tert-Butoxy)-2-(4-(4,4-dimethylpiperidin-1-yl)-5-(2-(5-methoxy-6-morpholinopyrimidin-4-yl)-1,2,3,4-tetrahydroisoquinolin-6-yl)-2,6-dimethylpyridin-3-yl)acetic Acid] | 2
4 | CC1(C)CCN(c2c(-c3ccc4c(c3)CCN(c3ncnc5c3oc3ccccc35)C4)c(CO)nc(Cl)c2[C@H](OC(C)(C)C)C(=O)O)CC1 [Example 95, (S)-2-(5-(2-(Benzofuro[3,2-d]pyrimidin-4-yl)-1,2,3,4-tetrahydroisoquinolin-6-yl)-2-chloro-4-(4,4-dimethylpiperidin-1-yl)-6-(hydroxymethyl)pyridin-3-yl)-2-(tert-butoxy)acetic acid] | 1
5 | Cc1ncc(-c2ccc3c(c2)CCN(c2nccc(-c4cccnc4)n2)C3)c(N2CCC(C)(C)CC2)c1[C@H](OC(C)(C)C)C(=O)O [Example 146, (S)-2-(tert-Butoxy)-2-(4-(4,4-dimethylpiperidin-1-yl)-2-methyl-5-(2-(4-(pyridin-3-yl)pyrimidin-2-yl)-1,2,3,4-tetrahydroisoquinolin-6-yl)pyridin-3-yl)acetic Acid] | 0.5
6 | Cc1cn(-c2cc(N3CCc4cc(-c5c(C)nc(C)c([C@H](OC(C)(C)C)C(=O)O)c5N5CCC(C)(C)CC5)ccc4C3)ncn2)cn1 [Example 132, (S)-2-(tert-Butoxy)-2-(4-(4,4-dimethylpiperidin-1-yl)-2,6-dimethyl-5-(2-(6-(4-methyl-1H-imidazol-1-yl)pyrimidin-4-yl)-1,2,3,4-tetrahydroisoquinolin-6-yl)pyridin-3-yl)acetic Acid] | 2
7 | Cc1cccc(Cl)c1CN1CCc2cc(-c3c(CO)nc(Cl)c([C@H](OC(C)(C)C)C(=O)O)c3N3CCC(C)(C)CC3)ccc2C1 [Example 97, (S)-2-(tert-Butoxy)-2-(2-chloro-5-(2-(2-chloro-6-methylbenzyl)-1,2,3,4-tetrahydroisoquinolin-6-yl)-4-(4,4-dimethylpiperidin-1-yl)-6-(hydroxymethyl)pyridin-3-yl)acetic Acid] | 2
8 | Cc1nc(C)c([C@H](OC(C)(C)C)C(=O)O)c(N2CCC(C)(C)CC2)c1-c1ccc2c(c1)CCN(c1nccc(N3C4CCC3CN(C)C4)n1)C2 [Example 43, (2S)-2-(tert-Butoxy)-2-[4-(4,4-dimethylpiperidin-1-yl)-2,6-dimethyl-5-[2-(4-{3-methyl-3,8-diazabicyclo[3.2.1]octan-8-yl}pyrimidin-2-yl)-1,2,3,4-tetrahydroisoquinolin-6-yl]pyridin-3-yl]acetic Acid] | 3
9 | Cc1cccc(Cl)c1CN1CCc2cc(-c3c(CNCCCCCCc4ccccc4)nc(C)c([C@H](OC(C)(C)C)C(=O)O)c3N3CCC(C)(C)CC3)ccc2C1 [Example 157, (S)-2-(tert-Butoxy)-2-(5-(2-(2-chloro-6-methylbenzyl)-1,2,3,4-tetrahydroisoquinolin-6-yl)-4-(4,4-dimethylpiperidin-1-yl)-2-methyl-6-(((6-phenylhexyl)amino)methyl)pyridin-3-yl)acetic Acid] | 340
10 | Cc1cccc(Cl)c1CN1CCc2cc(-c3c(CO)ncc([C@H](OC(C)(C)C)C(=O)O)c3N3CCC(C)(C)CC3)ccc2C1 [Example 117, (S)-2-(tert-Butoxy)-2-(5-(2-(2-chloro-6-methylbenzyl)-1,2,3,4-tetrahydroisoquinolin-6-yl)-4-(4,4-dimethylpiperidin-1-yl)-6-(hydroxymethyl)pyridin-3-yl)acetic Acid] | 1
11 | Cc1nc(C)c([C@H](OC(C)(C)C)C(=O)O)c(N2CCC(C)(C)CC2)c1-c1ccc2c(c1)CCN(c1nccc(N3CCC(CC(C)(C)O)CC3)n1)C2 [Example 145, (S)-2-(tert-Butoxy)-2-(4-(4,4-dimethylpiperidin-1-yl)-5-(2-(4-(4-(2-hydroxy-2-methylpropyl)piperidin-1-yl)pyrimidin-2-yl)-1,2,3,4-tetrahydroisoquinolin-6-yl)-2,6-dimethylpyridin-3-yl)acetic Acid] | 10
12 | Cc1nc(C)c([C@H](OC(C)(C)C)C(=O)O)c(N2CCC(C)(C)CC2)c1-c1ccc2c(c1)CCN(c1nccc(N3CC4CCC(C3)O4)n1)C2 [Example 30, (2S)-2-(tert-Butoxy)-2-[4-(4,4-dimethylpiperidin-1-yl)-2,6-dimethyl-5-[2-(4-{8-oxa-3-azabicyclo[3.2.1]octan-3-yl}pyrimidin-2-yl)-1,2,3,4-tetrahydroisoquinolin-6-yl]pyridin-3-yl]acetic Acid] | 1
13 | Cc1nc(C)c([C@H](OC(C)(C)C)C(=O)O)c(N2CCC(C)(C)CC2)c1-c1ccc2c(c1)CCN(Cc1ccccc1)C2 [Example 52, (2S)-2-[5-(2-Benzyl-1,2,3,4-tetrahydroisoquinolin-6-yl)-4-(4,4-dimethylpiperidin-1-yl)-2,6-dimethylpyridin-3-yl]-2-(tert-butoxy)acetic Acid] | 3
14 | Cc1cccc(Cl)c1CN1CCc2cc(-c3c(CNCCCCCc4ccccc4)nc(C)c([C@H](OC(C)(C)C)C(=O)O)c3N3CCC(C)(C)CC3)ccc2C1 [Example 156, (S)-2-(tert-Butoxy)-2-(5-(2-(2-chloro-6-methylbenzyl)-1,2,3,4-tetrahydroisoquinolin-6-yl)-4-(4,4-dimethylpiperidin-1-yl)-2-methyl-6-(((5-phenylpentyl)amino)methyl)pyridin-3-yl)acetic Acid] | 65
15 | COCCNc1nc(C)c([C@H](OC(C)(C)C)C(=O)O)c(N2CCC(C)(C)CC2)c1-c1ccc2c(c1)CCN(Cc1c(C)cccc1Cl)C2 [Example 2, (S)-2-(tert-Butoxy)-2-(5-(2-(2-chloro-6-methylbenzyl)-1,2,3,4-tetrahydroisoquinolin-6-yl)-4-(4,4-dimethylpiperidin-1-yl)-6-((2-methoxyethyl)amino)-2-methylpyridin-3-yl)acetic Acid] | 4
16 | CC1(C)CCN(c2c(-c3ccc4c(c3)CCN(c3ncnc5c3oc3ccccc35)C4)c(N)nc(Cl)c2[C@H](OC(C)(C)C)C(=O)O)CC1 [Example 100, (S)-2-(6-Amino-5-(2-(benzofuro[3,2-d]pyrimidin-4-yl)-1,2,3,4-tetrahydroisoquinolin-6-yl)-2-chloro-4-(4,4-dimethylpiperidin-1-yl)pyridin-3-yl)-2-(tert-butoxy)acetic Acid] | 4
17 | Cc1nc(C)c([C@H](OC(C)(C)C)C(=O)O)c(N2CCC(C)(C)CC2)c1-c1ccc2c(c1)CCN(c1cc(N3CCC(CCO)CC3)ncn1)C2 [Example 121, (S)-2-(tert-Butoxy)-2-(4-(4,4-dimethylpiperidin-1-yl)-5-(2-(6-(4-(2-hydroxyethyl)piperidin-1-yl)pyrimidin-4-yl)-1,2,3,4-tetrahydroisoquinolin-6-yl)-2,6-dimethylpyridin-3-yl)acetic Acid] | 9
18 | Cc1nc(CN2CCC2)c(-c2ccc3c(c2)CCN(c2ncnc4c2oc2ccccc24)C3)c(N2CCC(C)(C)CC2)c1[C@H](OC(C)(C)C)C(=O)O [Example 160, (S)-2-(6-(Azetidin-1-ylmethyl)-5-(2-(benzofuro[3,2-d]pyrimidin-4-yl)-1,2,3,4-tetrahydroisoquinolin-6-yl)-4-(4,4-dimethylpiperidin-1-yl)-2-methylpyridin-3-yl)-2-(tert-butoxy)acetic Acid] | 20
19 | Cc1nc(C)c([C@H](OC(C)(C)C)C(=O)O)c(N2CCC(C)(C)CC2)c1-c1ccc2c(c1)CCN(c1cc(N3CCOCC3)c(F)cn1)C2 [Example 91, (S)-2-(tert-Butoxy)-2-(4-(4,4-dimethylpiperidin-1-yl)-5-(2-(5-fluoro-4-morpholinopyridin-2-yl)-1,2,3,4-tetrahydroisoquinolin-6-yl)-2,6-dimethylpyridin-3-yl)acetic Acid] | 9
